# Source: patent US6737383B1, “Herbicidal oxadiazolidines” (priority 1999, dated 2004)
# Experiments:
# corn = experiment: Test B pre/postemergence corn; format: in vivo, Zea mays
# In short: (§1)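 Herbicidal effect was estimated by eye on a ten-point control scale after plants spent twelve to sixteen days in a greenhouse following soil or foliar treatment. Foliar sprays targeted plants at one to four leaves; all doses were formulated in a non-phytotoxic solvent with surfactant.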
# pigweed = experiment: Test B pre/postemergence pigweed; format: in vivo, Amaranthus retroflexus
# In short: as §1
# wild oat = experiment: Test B pre/postemergence wild oat; format: in vivo, Avena fatua
# In short: as §1
# wheat = experiment: Test B pre/postemergence wheat; format: in vivo, Triticum aestivum
# In short: as §1
# smallflower flatsedge = experiment: Test B flood test smallflower flatsedge; format: in vivo, Cyperus difformis
# In short: (§2)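 Read-out is a visual response score from 0 (no effect) to 10 (complete control), assigned by comparison with untreated controls. Treatment was applied at the 2-leaf stage, and plants stayed in the greenhouse for twelve to sixteen days before scoring.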
# purple nutsedge = experiment: Test B pre/postemergence purple nutsedge; format: in vivo, Cyperus rotundus
# In short: as §1
# sugar beet = experiment: Test B pre/postemergence sugar beet; format: in vivo, Beta vulgaris
# In short: as §1
# bamyardgrass = experiment: Test B flood test barnyardgrass; format: in vivo, Echinochloa crus-galli
# In short: as §2
# blackgrass = experiment: Test B pre/postemergence blackgrass; format: in vivo, Alopecurus myosuroides
# In short: as §1
# velvetleaf = experiment: Test B pre/postemergence velvetleaf; format: in vivo, Abutilon theophrasti
# In short: as §1
# bedstraw = experiment: Test B pre/postemergence bedstraw; format: in vivo, Galium aparine; conditions: Preemergence, Rate 62 g/ha; scale 0 to 10 (0 no effect, 10 complete control)
# In short: as §1
# soybean = experiment: Test B pre/postemergence soybean; format: in vivo, Glycine max
# In short: as §1
# surinam grass = experiment: Test B pre/postemergence surinam grass; format: in vivo, Brachiaria decumbens
# In short: as §1
# rape = experiment: Test B pre/postemergence rape; format: in vivo, Brassica napus
# In short: as §1
# cocklebur = experiment: Test B pre/postemergence cocklebur; format: in vivo, Xanthium strumarium
# In short: as §1
# crabgrass = experiment: Test B pre/postemergence crabgrass; format: in vivo, Digitaria sanguinalis
# In short: as §1
# [1] = Postemergence, Rate 250 g/ha, scale 0 to 10
# [2] = Postemergence, Rate 500 g/ha, scale of 0 to 10 where 0 is no effect and 10 is complete control
# [3] = Preemergence, Rate 62 g/ha, scale 0 to 10 (0 no effect, 10 complete control)
# [4] = Preemergence, Rate 125 g/ha, scale of 0 to 10 where 0 is no effect and 10 is complete control
# [5] = Preemergence, Rate 250 g/ha, scale 0 to 10, 0 is no effect, 10 is complete control
# [6] = Preemergence, Rate 500 g/ha, scale 0 to 10, 0 is no effect, 10 is complete control
# [7] = Rate 62 g/ha, Postemergence, scale of 0 to 10 where 0 is no effect and 10 is complete control
# [8] = Rate 125 g/ha, Postemergence, scale 0 to 10, 0 is no effect, 10 is complete control
# [9] = Postemergence block (flood test species), Rate 250 g/ha, scale 0 to 10
# [10] = Postemergence section (flood test species), Rate 500 g/ha, scale of 0 to 10 where 0 is no effect and 10 is complete control
# [11] = Rate 125 g/ha, Postemergence section (flood test species), scale 0 to 10, 0 is no effect, 10 is complete control
smiles,measurement,setting,value
CC(C)N(C(=O)n1oc(=O)n(CC#N)c1=O)c1ccc(F)cc1F [Compound 431],Corn plant response rating,corn; [1],0
same,Corn plant response rating,corn; [2],0
same,"Plant response rating, Corn",corn; [3],0
same,"Plant response rating, Corn",corn; [4],0
same,Corn plant response rating,corn; [5],0
same,Corn plant response rating,corn; [6],0
same,Corn plant response rating,corn; [7],0
same,Corn plant response rating,corn; [8],0
same,Redroot pigweed plant response rating,pigweed; [1],0
same,Redroot pigweed plant response rating,pigweed; [2],0
same,"Plant response rating, Redroot pigweed",pigweed; [3],0
same,"Plant response rating, Redroot pigweed",pigweed; [4],0
same,Redroot pigweed plant response rating,pigweed; [5],0
same,Redroot pigweed plant response rating,pigweed; [6],0
same,Redroot pigweed plant response rating,pigweed; [8],0
same,Wild oats plant response rating,wild oat; [1],0
same,Wild oats plant response rating,wild oat; [2],0
same,"Plant response rating, Wild oats",wild oat; [3],0
same,"Plant response rating, Wild oats",wild oat; [4],0
same,Wild oats plant response rating,wild oat; [5],2
same,Wild oats plant response rating,wild oat; [6],2
same,Wild oats plant response rating,wild oat; [8],0
same,Wheat plant response rating,wheat; [1],0
same,Wheat plant response rating,wheat; [2],0
same,"Plant response rating, Wheat",wheat; [3],0
same,"Plant response rating, Wheat",wheat; [4],0
same,Wheat plant response rating,wheat; [5],0
same,Wheat plant response rating,wheat; [6],0
same,Wheat plant response rating,wheat; [8],0
same,S. Flatsedge plant response rating,smallflower flatsedge; [9],0
same,S. Flatsedge plant response rating,smallflower flatsedge; [10],0
same,S. Flatsedge plant response rating,smallflower flatsedge; [11],0
same,Nutsedge plant response rating,purple nutsedge; [1],0
same,Nutsedge plant response rating,purple nutsedge; [2],0
same,"Plant response rating, Nutsedge",purple nutsedge; [3],0
same,"Plant response rating, Nutsedge",purple nutsedge; [4],0
same,Nutsedge plant response rating,purple nutsedge; [5],0
same,Nutsedge plant response rating,purple nutsedge; [6],0
same,Nutsedge plant response rating,purple nutsedge; [8],0
same,Sugarbeets plant response rating,sugar beet; [1],0
same,Sugarbeets plant response rating,sugar beet; [2],0
same,"Plant response rating, Sugarbeets",sugar beet; [3],0
same,"Plant response rating, Sugarbeets",sugar beet; [4],0
same,Sugarbeets plant response rating,sugar beet; [5],0
same,Sugarbeets plant response rating,sugar beet; [6],0
same,Sugarbeets plant response rating,sugar beet; [8],0
same,Barnyardgrass plant response rating,bamyardgrass; [9],0
same,Barnyardgrass plant response rating,bamyardgrass; [10],0
same,Barnyardgrass plant response rating,"bamyardgrass; Rate 62 g/ha, Postemergence (flood test species), scale of 0 to 10 where 0 is no effect and 10 is complete control",0
same,Barnyardgrass plant response rating,bamyardgrass; [11],0
same,Blackgrass plant response rating,blackgrass; [1],2
same,Blackgrass plant response rating,blackgrass; [2],5
same,"Plant response rating, Blackgrass",blackgrass; [3],0
same,"Plant response rating, Blackgrass",blackgrass; [4],0
same,Blackgrass plant response rating,blackgrass; [5],0
same,Blackgrass plant response rating,blackgrass; [6],3
same,Blackgrass plant response rating,blackgrass; [7],0
same,Blackgrass plant response rating,blackgrass; [8],0
same,Velvetleaf plant response rating,velvetleaf; [1],0
same,Velvetleaf plant response rating,velvetleaf; [2],2
same,"Plant response rating, Velvetleaf",velvetleaf; [3],0
same,"Plant response rating, Velvetleaf",velvetleaf; [4],0
same,Velvetleaf plant response rating,velvetleaf; [5],0
same,Velvetleaf plant response rating,velvetleaf; [6],0
same,Velvetleaf plant response rating,velvetleaf; [8],0
same,"Plant response rating, Bedstraw",bedstraw,0
same,Soybean plant response rating,soybean; [1],1
same,Soybean plant response rating,soybean; [2],2
same,"Plant response rating, Soybean",soybean; [3],0
same,"Plant response rating, Soybean",soybean; [4],0
same,Soybean plant response rating,soybean; [5],0
same,Soybean plant response rating,soybean; [6],0
same,Soybean plant response rating,soybean; [8],1
same,B. signalgrass plant response rating,"surinam grass; Postemergence, Rate 250 g/ha, scale 0 to 10, 0 no effect, 10 complete control",0
same,B. signalgrass plant response rating,surinam grass; [2],2
same,"Plant response rating, B. signalgrass",surinam grass; [3],0
same,"Plant response rating, B. signalgrass",surinam grass; [4],0
same,B. signalgrass plant response rating,surinam grass; [5],0
same,B. signalgrass plant response rating,surinam grass; [6],0
same,B. signalgrass plant response rating,surinam grass; [7],0
same,B. signalgrass plant response rating,surinam grass; [8],0
same,Rape plant response rating,rape; [1],0
same,Rape plant response rating,rape; [2],0
same,"Plant response rating, Rape",rape; [3],0
same,"Plant response rating, Rape",rape; [4],0
same,Rape plant response rating,rape; [5],0
same,Rape plant response rating,rape; [6],3
same,Rape plant response rating,rape; [8],0
same,Cocklebur plant response rating,cocklebur; [1],0
same,Cocklebur plant response rating,cocklebur; [2],0
same,"Plant response rating, Cocklebur",cocklebur; [3],0
same,"Plant response rating, Cocklebur",cocklebur; [4],0
same,Cocklebur plant response rating,cocklebur; [5],0
same,Cocklebur plant response rating,cocklebur; [7],0
same,Cocklebur plant response rating,cocklebur; [8],0
same,Crabgrass plant response rating,crabgrass; [1],0
same,Crabgrass plant response rating,crabgrass; [2],2
same,"Plant response rating, Crabgrass",crabgrass; [3],0
same,Crabgrass plant response rating,crabgrass; [6],3
same,Crabgrass plant response rating,crabgrass; [7],0
same,Crabgrass plant response rating,crabgrass; [8],0
